Test results as given in ChEMBL document CHEMBL1150976, “The selectivity of protein kinase inhibitors: a further update” (Biochem J, 2007).

What was measured:
[1] = biological target: Rho-associated protein kinase 2 (Homo sapiens) (UniProt O75116); assay: Percentage ROCK2 activity remaining in the presence of 25uM inhibitor
[2] = biological target: T1, Mitogen-activated protein kinase 13 (Homo sapiens) (UniProt O15264); assay: Percentage p38delta activity remaining in the presence of 25uM inhibitor
T1 sequence (whole entry): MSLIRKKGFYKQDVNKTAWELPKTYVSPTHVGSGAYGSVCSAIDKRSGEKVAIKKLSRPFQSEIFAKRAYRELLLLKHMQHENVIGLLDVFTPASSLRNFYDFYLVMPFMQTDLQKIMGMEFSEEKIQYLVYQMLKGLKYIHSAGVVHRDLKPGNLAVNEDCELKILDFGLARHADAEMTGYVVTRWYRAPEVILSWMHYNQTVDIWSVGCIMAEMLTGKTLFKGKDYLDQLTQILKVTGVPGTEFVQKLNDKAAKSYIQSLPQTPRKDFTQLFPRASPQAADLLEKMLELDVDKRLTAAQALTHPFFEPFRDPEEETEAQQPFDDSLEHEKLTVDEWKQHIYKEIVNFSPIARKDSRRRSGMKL

[3] = biological target: Ribosomal protein S6 kinase alpha-5 (Homo sapiens) (UniProt O75582); assay: Percentage MSK1 activity remaining in the presence of 25uM inhibitor
Chain of Ribosomal protein S6 kinase alpha-5 (Homo sapiens) (O75582 whole entry, looked up): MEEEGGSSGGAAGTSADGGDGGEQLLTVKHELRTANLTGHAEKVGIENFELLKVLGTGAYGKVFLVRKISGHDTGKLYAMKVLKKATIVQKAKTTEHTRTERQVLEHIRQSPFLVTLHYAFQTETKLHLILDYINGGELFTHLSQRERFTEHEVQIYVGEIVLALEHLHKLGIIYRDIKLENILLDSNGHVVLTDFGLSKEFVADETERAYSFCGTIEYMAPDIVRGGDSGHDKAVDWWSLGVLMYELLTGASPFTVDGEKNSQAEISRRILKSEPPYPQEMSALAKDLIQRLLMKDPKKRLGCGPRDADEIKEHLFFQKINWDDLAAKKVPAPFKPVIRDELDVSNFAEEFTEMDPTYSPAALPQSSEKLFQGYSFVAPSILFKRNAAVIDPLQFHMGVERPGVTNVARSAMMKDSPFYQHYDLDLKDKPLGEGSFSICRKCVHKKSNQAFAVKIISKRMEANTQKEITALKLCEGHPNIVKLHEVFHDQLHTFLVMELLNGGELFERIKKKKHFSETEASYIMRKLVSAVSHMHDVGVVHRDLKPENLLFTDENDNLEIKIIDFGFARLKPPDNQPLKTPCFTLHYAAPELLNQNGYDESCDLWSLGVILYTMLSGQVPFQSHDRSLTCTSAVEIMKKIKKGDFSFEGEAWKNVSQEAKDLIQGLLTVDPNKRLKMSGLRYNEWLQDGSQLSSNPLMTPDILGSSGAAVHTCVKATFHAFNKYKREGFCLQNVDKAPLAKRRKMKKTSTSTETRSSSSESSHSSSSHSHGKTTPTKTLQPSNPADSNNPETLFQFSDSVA

[4] = biological target: cAMP-dependent protein kinase catalytic subunit alpha (Homo sapiens, UniProt P17612); assay: Percentage PKA activity remaining in the presence of […]uM inhibitor; details: at 25 µM
[5] = biological target: Tyrosine-protein kinase CSK (Homo sapiens, UniProt P41240); assay: Percentage CSK activity remaining in the presence of 25uM inhibitor
[6] = biological target: T2, Serine/threonine-protein kinase BRSK2 (Homo sapiens) (UniProt Q8IWQ3); assay: Percentage BRSK2 activity remaining in the presence of 25uM inhibitor
T2 sequence (whole entry): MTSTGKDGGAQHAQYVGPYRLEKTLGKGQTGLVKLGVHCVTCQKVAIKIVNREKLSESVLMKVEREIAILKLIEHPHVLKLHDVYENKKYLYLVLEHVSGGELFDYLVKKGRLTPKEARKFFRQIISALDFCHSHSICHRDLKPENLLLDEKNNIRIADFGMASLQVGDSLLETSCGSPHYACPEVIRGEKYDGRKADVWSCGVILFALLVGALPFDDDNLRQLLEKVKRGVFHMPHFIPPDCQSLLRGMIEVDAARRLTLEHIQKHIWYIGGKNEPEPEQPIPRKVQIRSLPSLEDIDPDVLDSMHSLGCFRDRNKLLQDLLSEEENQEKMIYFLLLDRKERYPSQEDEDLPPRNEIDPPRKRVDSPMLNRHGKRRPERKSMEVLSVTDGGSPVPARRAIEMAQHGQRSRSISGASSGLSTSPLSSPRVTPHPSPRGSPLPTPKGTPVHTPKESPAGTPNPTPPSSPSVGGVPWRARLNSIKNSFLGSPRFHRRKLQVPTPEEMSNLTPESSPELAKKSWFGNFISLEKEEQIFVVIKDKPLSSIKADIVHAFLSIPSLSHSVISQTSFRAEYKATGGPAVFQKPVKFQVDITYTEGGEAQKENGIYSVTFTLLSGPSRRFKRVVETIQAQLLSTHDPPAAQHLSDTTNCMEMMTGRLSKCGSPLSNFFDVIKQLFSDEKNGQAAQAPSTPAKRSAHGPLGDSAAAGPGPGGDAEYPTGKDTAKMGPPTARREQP

[7] = biological target: Ribosomal protein S6 kinase alpha-1 (Homo sapiens) (UniProt Q15418); assay: Percentage RSK1 activity remaining in the presence of 25uM inhibitor
Chain of Ribosomal protein S6 kinase alpha-1 (Homo sapiens) (Q15418 whole entry): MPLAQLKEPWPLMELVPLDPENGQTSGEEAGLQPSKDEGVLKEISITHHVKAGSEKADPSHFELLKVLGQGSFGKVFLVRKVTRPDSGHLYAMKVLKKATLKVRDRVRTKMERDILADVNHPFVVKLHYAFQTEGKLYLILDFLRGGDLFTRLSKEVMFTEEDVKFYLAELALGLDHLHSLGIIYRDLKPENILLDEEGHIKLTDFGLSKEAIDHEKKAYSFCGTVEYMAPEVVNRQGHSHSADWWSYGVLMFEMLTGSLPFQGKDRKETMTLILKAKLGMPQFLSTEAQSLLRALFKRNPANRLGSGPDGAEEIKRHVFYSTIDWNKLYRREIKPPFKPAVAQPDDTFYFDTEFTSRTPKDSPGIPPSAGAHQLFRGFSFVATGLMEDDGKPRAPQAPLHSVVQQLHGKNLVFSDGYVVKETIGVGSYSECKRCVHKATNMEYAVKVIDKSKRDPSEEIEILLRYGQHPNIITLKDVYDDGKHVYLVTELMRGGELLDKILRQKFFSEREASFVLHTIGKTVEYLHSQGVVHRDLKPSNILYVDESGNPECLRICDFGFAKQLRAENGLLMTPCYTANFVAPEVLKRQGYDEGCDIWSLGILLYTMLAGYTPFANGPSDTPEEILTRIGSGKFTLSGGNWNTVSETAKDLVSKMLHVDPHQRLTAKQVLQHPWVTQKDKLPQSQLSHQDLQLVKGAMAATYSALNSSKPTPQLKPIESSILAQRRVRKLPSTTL

[8] = biological target: Mitogen-activated protein kinase 14 (Homo sapiens, UniProt Q16539); assay: Percentage p38alpha activity remaining in the presence of 25uM inhibitor
Chain of Mitogen-activated protein kinase 14 (Q16539 whole entry): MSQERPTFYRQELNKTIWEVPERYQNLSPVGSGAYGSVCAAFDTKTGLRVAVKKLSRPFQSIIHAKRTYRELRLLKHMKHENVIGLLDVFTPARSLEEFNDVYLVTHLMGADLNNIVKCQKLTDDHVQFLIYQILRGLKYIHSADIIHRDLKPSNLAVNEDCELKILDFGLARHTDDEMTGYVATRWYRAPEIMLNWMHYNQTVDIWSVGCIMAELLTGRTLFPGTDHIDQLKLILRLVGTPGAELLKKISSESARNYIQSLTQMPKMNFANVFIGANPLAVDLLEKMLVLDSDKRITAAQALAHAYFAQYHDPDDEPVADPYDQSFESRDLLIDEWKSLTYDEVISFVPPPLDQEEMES

[9] = biological target: MAP/microtubule affinity-regulating kinase 3 (Homo sapiens) (UniProt P27448); assay: Percentage MARK3 activity remaining in the presence of 25uM inhibitor
Chain of MAP/microtubule affinity-regulating kinase 3 (Homo sapiens) (P27448 whole entry, looked up): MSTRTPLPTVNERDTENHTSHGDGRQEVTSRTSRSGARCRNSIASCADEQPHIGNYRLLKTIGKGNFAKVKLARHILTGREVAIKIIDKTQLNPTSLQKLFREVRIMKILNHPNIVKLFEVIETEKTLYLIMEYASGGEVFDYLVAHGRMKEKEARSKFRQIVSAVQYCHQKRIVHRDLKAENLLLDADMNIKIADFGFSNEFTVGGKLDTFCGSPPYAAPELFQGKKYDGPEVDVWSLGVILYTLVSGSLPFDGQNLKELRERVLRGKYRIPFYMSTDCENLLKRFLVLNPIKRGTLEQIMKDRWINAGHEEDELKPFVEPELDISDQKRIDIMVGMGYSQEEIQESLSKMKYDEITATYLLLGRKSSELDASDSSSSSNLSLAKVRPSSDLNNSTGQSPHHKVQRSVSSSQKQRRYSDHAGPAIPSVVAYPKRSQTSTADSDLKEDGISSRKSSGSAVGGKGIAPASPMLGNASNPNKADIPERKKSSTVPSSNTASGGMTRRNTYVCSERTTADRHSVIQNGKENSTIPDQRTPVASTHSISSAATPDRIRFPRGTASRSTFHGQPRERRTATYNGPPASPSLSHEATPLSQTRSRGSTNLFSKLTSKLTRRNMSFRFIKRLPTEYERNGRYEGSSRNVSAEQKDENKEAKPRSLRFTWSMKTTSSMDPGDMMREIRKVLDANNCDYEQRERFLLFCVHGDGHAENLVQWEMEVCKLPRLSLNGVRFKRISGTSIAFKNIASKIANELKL

Aurora kinase B = Aurora kinase B (Homo sapiens, UniProt Q96GD4); assay: Percentage Aurora B activity remaining in the presence of 25uM inhibitor
Chain of Aurora kinase B (Q96GD4 whole entry): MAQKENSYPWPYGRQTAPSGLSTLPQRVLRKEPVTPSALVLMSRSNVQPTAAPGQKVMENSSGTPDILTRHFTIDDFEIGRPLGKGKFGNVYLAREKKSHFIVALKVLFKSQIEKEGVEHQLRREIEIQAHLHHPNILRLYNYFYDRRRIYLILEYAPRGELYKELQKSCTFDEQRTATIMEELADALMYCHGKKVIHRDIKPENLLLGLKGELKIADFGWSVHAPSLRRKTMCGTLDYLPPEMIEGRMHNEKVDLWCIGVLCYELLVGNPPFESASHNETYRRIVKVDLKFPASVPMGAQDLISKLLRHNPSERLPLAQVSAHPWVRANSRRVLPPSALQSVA

[10] = biological target: Mitogen-activated protein kinase 3 (Homo sapiens) (UniProt P27361); assay: Percentage ERK1 activity remaining in the presence of 25uM inhibitor
Chain of Mitogen-activated protein kinase 3 (Homo sapiens) (P27361 whole entry): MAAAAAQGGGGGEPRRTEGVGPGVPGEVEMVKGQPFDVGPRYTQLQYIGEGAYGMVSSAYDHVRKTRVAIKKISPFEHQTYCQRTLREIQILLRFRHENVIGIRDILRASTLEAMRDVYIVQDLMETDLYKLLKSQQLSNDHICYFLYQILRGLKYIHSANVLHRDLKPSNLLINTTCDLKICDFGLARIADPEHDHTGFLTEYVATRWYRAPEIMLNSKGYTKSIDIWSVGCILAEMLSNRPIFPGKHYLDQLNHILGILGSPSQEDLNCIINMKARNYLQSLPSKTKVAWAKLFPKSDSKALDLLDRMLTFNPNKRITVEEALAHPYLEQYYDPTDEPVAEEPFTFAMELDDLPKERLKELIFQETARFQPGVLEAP

[11] = biological target: T3, Serine/threonine-protein kinase D1 (Homo sapiens) (UniProt Q15139); assay: Percentage PKD1 activity remaining in the presence of 25uM inhibitor
T3 sequence (whole entry): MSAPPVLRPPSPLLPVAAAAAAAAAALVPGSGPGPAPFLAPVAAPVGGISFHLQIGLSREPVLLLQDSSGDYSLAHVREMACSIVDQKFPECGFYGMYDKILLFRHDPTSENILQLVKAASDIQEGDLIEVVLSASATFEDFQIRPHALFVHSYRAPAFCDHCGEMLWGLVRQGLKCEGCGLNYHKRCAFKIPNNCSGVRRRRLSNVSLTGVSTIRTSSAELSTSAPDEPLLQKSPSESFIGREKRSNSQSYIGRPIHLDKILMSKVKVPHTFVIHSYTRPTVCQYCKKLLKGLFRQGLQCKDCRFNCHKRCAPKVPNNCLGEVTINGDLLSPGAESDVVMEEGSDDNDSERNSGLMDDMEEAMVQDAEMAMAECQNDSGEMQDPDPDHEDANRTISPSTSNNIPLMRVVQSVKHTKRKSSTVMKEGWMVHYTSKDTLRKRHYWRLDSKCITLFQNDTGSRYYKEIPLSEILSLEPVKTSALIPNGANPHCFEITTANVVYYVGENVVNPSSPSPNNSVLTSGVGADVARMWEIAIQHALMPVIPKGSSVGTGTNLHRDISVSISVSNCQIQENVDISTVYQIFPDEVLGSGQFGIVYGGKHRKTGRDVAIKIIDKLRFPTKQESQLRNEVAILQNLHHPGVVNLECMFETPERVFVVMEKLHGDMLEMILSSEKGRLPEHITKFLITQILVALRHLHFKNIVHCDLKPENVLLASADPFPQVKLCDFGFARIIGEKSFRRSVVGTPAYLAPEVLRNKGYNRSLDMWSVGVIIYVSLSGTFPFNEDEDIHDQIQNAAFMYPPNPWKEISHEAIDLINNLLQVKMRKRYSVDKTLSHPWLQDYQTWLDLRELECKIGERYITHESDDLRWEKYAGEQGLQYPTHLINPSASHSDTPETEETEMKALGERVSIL

Chain of Rho-associated protein kinase 2 (Homo sapiens) (O75116 whole entry, looked up): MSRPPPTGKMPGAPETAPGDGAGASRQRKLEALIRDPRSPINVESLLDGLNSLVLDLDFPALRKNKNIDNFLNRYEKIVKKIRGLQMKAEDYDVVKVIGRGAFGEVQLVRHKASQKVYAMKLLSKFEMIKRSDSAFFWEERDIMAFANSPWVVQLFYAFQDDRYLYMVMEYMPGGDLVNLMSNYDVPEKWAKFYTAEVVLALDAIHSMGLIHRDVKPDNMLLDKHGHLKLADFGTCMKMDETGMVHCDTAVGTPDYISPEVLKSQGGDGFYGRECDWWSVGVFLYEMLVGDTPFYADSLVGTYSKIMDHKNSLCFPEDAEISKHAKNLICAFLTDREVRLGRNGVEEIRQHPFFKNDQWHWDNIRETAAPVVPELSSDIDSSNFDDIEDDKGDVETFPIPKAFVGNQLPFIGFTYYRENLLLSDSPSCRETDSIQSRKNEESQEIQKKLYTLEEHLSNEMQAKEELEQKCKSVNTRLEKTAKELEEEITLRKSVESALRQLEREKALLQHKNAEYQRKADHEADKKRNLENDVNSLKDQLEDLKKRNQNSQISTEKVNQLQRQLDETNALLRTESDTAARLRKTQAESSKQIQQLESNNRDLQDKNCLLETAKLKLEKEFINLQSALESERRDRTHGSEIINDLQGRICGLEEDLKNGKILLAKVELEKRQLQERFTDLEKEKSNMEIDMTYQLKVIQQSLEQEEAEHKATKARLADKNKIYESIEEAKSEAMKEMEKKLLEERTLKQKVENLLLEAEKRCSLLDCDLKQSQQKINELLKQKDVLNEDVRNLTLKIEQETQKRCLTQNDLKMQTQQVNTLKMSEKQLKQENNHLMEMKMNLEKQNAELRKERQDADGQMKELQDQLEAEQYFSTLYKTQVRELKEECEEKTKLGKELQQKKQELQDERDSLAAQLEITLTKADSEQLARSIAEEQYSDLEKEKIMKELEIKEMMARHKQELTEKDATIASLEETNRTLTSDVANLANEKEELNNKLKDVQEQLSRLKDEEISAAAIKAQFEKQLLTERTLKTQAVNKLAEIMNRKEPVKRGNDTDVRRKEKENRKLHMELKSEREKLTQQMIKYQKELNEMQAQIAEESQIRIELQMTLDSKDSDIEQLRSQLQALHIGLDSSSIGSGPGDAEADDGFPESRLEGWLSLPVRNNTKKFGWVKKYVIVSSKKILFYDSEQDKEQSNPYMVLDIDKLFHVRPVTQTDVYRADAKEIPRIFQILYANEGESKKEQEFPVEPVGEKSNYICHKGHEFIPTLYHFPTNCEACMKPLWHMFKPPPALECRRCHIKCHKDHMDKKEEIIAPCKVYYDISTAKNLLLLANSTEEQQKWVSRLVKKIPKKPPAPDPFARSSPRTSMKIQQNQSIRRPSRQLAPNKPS

| SMILES | Activity [1] [%] | Activity [2] [%] | Activity [3] [%] | Activity [4] [%] | Activity [5] [%] | Activity [6] [%] | Activity [7] [%] | Activity [8] [%] | Activity [9] [%] | Activity (Aurora kinase B) [%] | Activity [10] [%] | Activity [11] [%] | Activity ([3]; filed as antagonist) [%] | Activity ([6]; filed as antagonist) [%] | Activity ([7]; filed as antagonist) [%] |
| --- | --- | --- | --- | --- | --- | --- | --- | --- | --- | --- | --- | --- | --- | --- | --- |
| COc1cc(OC)c(/C=C2/C(=O)Nc3ccccc32)c(OC)c1 | 78 | 91 | 88 | 82 | 81 | 88 | 87 | 92 | 88 | 75 | 91 | 62 | – | – | – |
| NCCNS(=O)(=O)c1ccc(Cl)c2ccncc12 | 65 | 80 | – | 65 | 79 | – | – | 103 | 78 | 78 | 102 | 60 | 42 | 42 | 48 |
